Test system: 454973-116-R2-J3-PDC spheroids, viability, % test/control
Assay: Anticancer human tumor 454973-116-R2-J3-PDC patient-derived pancreatic carcinoma cell line growth inhibition [GQUAD]
Settings: spheroids with HUVEC and MSC; for IC50: curve of first compound; for viability, T/C: stronger effect = lower value
Source text: DNA G-quadruplex Stabilizer Agents in Combinations in Complex Spheroids
A high-throughput screen of multi-cell type tumor spheroids was designed to identify active combinations of DNA G-quadruplex stabilizer agents and targeted small molecules. Complex spheroids include a stromal component modeled by human endothelial cells (HUVEC) and fibroblasts modeled by human mesenchymal stem cells (MSCs). The concentration ranges selected for each drug and investigational agent were based upon clinically achievable concentrations if the clinical Cmax of the agent was known.
Compounds. The drugs and investigational agents: pidnarulex (CX-5461; NSC782164), APTO-253 (NSC789042), BRACO-19 (NSC847499), peposertib (NSC802822), ceralasertib (NSC780249), elimusertib (NSC800525), camonsertib (NSC841442), AZD-1390 (NSC803789), olaparib (NSC753686), talazoparib (NSC767125), ART-558 (NSC835418), sotorasib (NSC818433), MRTX-1133 (NSC836407), SN-38 (NSC673596), topotecan (NSC609699), etoposide (NSC141540), doxorubicin (NSC123127), gemcitabine (NSC613327), 5-fluorouracil (NSC19893), paclitaxel (NSC125973), vemurafenib (NSC761431), panobinostat (NSC761190), R-306465 (JNJ-16241199; NSC773264), adavosertib (NSC754352), TP-3654 (NSC805149), carboplatin (NSC241240), KSQ-4279 (NSC840948), and staurosporine (NSC755774) were obtained from the National Cancer Institute (NCI) Developmental Therapeutics Program Chemical Repository (34). The FDA-approved anticancer drug set is available from the NCI Developmental Therapeutics Program. […] The stock solutions were prepared in dimethyl sulfoxide (DMSO, Sigma-Aldrich, St. Louis, MO, cat. D2650) at 800-fold the tested concentration and stored at -70 degrees C prior to their use. All drugs and investigational agents were tested over a range starting from a high concentration at or near the clinical Cmax and decreasing in half-log increments. If the clinical Cmax for an agent had not been determined, the highest concentration tested was 10 microM.
2.3 Cell Culture. All cells were maintained in an incubator at 37 degrees C and 5% CO2 with 95% humidity. The PDC lines were cultured according to standard operating procedures established by the NCI PDMR. All PDCs were thawed and cultured in Matrigel-coated flasks prepared with a working solution of 1X Ham's F-12 nutrient mix, without supplementation (Invitrogen, cat. 11765054), 100 U/mL penicillin-streptomycin (Invitrogen, cat. 15140122), and 2.5% Matrigel (Corning Inc., cat. 354248) for the first three passages. The 857933-349-R-J2-PDC line was cultured in 6C/Colon 1B media, which includes advanced DMEM/F-12 (Thermo Fisher Scientific, cat. 12634028), 10 mM HEPES (Thermo Fisher Scientific, cat. 15630080), 1X GlutaMAX supplement (Thermo Fisher Scientific, cat. 35050061), 0.1 mg/mL primocin (InvivoGen, cat. ant-pm-2), 10% defined fetal bovine serum, heat inactivated (HyClone Laboratories Inc., cat. SH30070.03HI), 50% L-WRN conditioned media (ATCC, cat. CRL-3276), 1.25 mM N-Acetyl-L-cysteine (Sigma-Aldrich, cat. A9165), 10 mM nicotinamide (Sigma-Aldrich, cat. N0636), 1X B-27 supplement (Thermo Fisher Scientific, cat. 17504044), 1X N-2 supplement (Thermo Fisher Scientific, cat. 17502048), 10 microM Y-27632 dihydrochloride (Tocris Bioscience, cat. 1254), and 50 ng/mL human EGF recombinant protein (Thermo Fisher Scientific, cat. PHG0311). The 485176-168-R4-J1-PDC line was cultured in Panc media, which includes all 6C/Colon 1B media components plus 100 ng/mL human FGF-10 (Thermo Fisher Scientific, cat. 100-26), 500 nM SB-431542 (Selleckchem, cat. S1067), and gastrin (Tocris, cat. 3006).
[…]
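Note: spheroids exposed to compounds for seven days.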

SMILES: O=C(c1cc(Cc2n[nH]c(=O)c3ccccc23)ccc1F)N1CCN(C(=O)C2CC2)CC1 + CN(C)c1ccc(Nc2c3ccc(NC(=O)CCN4CCCC4)cc3nc3cc(NC(=O)CCN4CCCC4)ccc23)cc1
- IC50 (second compound 0.0316 µM): > 10 µM
- IC50 (second compound 0.1 µM): > 10 µM
- IC50 (second compound 0.316 µM): > 10 µM
- IC50 (second compound 1 µM): > 10 µM
- IC50 (second compound 3.16 µM): > 10 µM
- IC50 (second compound 10 µM): > 10 µM
- viability, T/C (second compound 0.0316 µM, first compound 0.0316 µM): 111%
- viability, T/C (second compound 0.0316 µM, first compound 0.1 µM): 95%
- viability, T/C (second compound 0.0316 µM, first compound 0.316 µM): 101%
- viability, T/C (second compound 0.0316 µM, first compound 1 µM): 97.3%
- viability, T/C (second compound 0.0316 µM, first compound 3.16 µM): 85.1%
- viability, T/C (second compound 0.0316 µM, first compound 10 µM): 61.4%
- viability, T/C (second compound 0.1 µM, first compound 0.0316 µM): 108%
- viability, T/C (second compound 0.1 µM, first compound 0.1 µM): 96.7%
- viability, T/C (second compound 0.1 µM, first compound 0.316 µM): 99.3%
- viability, T/C (second compound 0.1 µM, first compound 1 µM): 93.1%
- viability, T/C (second compound 0.1 µM, first compound 3.16 µM): 79.6%
- viability, T/C (second compound 0.1 µM, first compound 10 µM): 60.8%
- viability, T/C (second compound 0.316 µM, first compound 0.0316 µM): 104%
- viability, T/C (second compound 0.316 µM, first compound 0.1 µM): 91.6%
- viability, T/C (second compound 0.316 µM, first compound 0.316 µM): 93.6%
- viability, T/C (second compound 0.316 µM, first compound 1 µM): 88.2%
- viability, T/C (second compound 0.316 µM, first compound 3.16 µM): 82.6%
- viability, T/C (second compound 0.316 µM, first compound 10 µM): 65.1%
- viability, T/C (second compound 1 µM, first compound 0.0316 µM): 88.5%
- viability, T/C (second compound 1 µM, first compound 0.1 µM): 91.9%
- viability, T/C (second compound 1 µM, first compound 0.316 µM): 98.2%
- viability, T/C (second compound 1 µM, first compound 1 µM): 74.5%
- viability, T/C (second compound 1 µM, first compound 3.16 µM): 70.7%
- viability, T/C (second compound 1 µM, first compound 10 µM): 59.3%
- viability, T/C (second compound 3.16 µM, first compound 0.0316 µM): 90.7%
- viability, T/C (second compound 3.16 µM, first compound 0.1 µM): 91.7%
- viability, T/C (second compound 3.16 µM, first compound 0.316 µM): 92.7%
- viability, T/C (second compound 3.16 µM, first compound 1 µM): 74.1%
- viability, T/C (second compound 3.16 µM, first compound 3.16 µM): 75.2%
- viability, T/C (second compound 3.16 µM, first compound 10 µM): 57.1%
- viability, T/C (second compound 10 µM, first compound 0.0316 µM): 75.8%
- viability, T/C (second compound 10 µM, first compound 0.1 µM): 75.2%
- viability, T/C (second compound 10 µM, first compound 0.316 µM): 67.9%
- viability, T/C (second compound 10 µM, first compound 1 µM): 67.4%
- viability, T/C (second compound 10 µM, first compound 3.16 µM): 63.5%
- viability, T/C (second compound 10 µM, first compound 10 µM): 51.7%
